What was measured:
[1] = system: two-spotted spider mite (Tetranychus urticae); experiment: Tetranychus urticae test (sprayed dwarf bean leaves); format: in vivo; conditions: single active compound
Excerpt: (§1) Solvents: 78 parts by weight of acetone

[2] = system: green peach aphid (Myzus persicae); experiment: Myzus persicae test (sprayed cabbage leaves); format: in vivo; conditions: single active compound, 100 g/ha
Excerpt: as §1

[3] = system: larvae of the mustard beetle (Phaedon cochleariae); experiment: Phaedon cochleariae larvae test (sprayed cabbage leaves); conditions: single active compound, 100 g/ha
[4] = system: larvae of the army worm (Spodoptera frugiperda); experiment: Spodoptera frugiperda test (sprayed cabbage leaves); format: in vivo; conditions: single active compound, 100 g/ha
Excerpt: as §1

Q: For Cc1cc(C)c(C2=C(OC(=O)CC(C)(C)C)C3(CCCC3)OC2=O)c(C)c1 [Spiromesifen], which “Kill rate in % after 2d” value ([1]; 0.16 g/ha) is on record?
A: 0%

Q: What about the “Kill rate in % after 2d” value ([1]; 0.8 g/ha) of the same molecule?
A: 10%

Q: And the “Kill level in % after 6d” value [2]?
A: 70%

Q: What does the source list for CSC(=O)O/C(=C(/C#N)c1ccc(Cl)cc1)c1ccccc1C(F)(F)F [IKA 2002]?
A: Kill rate in % after 2d ([1]; 0.032 g/ha): 0%; Kill rate in % after 2d ([1]; 0.8 g/ha): 0%; Kill level in % after 6d [3]: 33%; Kill level in % after 6d [4]: 0%

Q: What does the source list for COCCOC(=O)C(C#N)(C(=O)c1ccccc1C(F)(F)F)c1ccc(C(C)(C)C)cc1 (stereo not drawn) [Cyflumetofen, 2-methoxyethyl alpha-cyano-alpha-[4-(1,1-dimethylethyl)phenyl]-beta-oxo-2-(trifluoromethyl)benzenepropanoate]?
A: Kill rate in % after 2d ([1]; 0.8 g/ha): 20%; Kill level in % after 6d [3]: 0%; Kill level in % after 6d [4]: 0%; Kill level in % after 6d [2]: 0%

Q: Which “Kill rate in % after 2d” value ([1]; 0.8 g/ha) does the source give for CCC(C)(C)C(=O)OC1=C(c2ccc(Cl)cc2Cl)C(=O)OC12CCCCC2 [Spirodiclofen] here?
A: 10%

Q: CCOC(=O)OC1=C(c2cc(C)ccc2C)C(=O)N[C@]12CC[C@@H](OC)CC2 [Spirotetramat] was tested. Which “Kill rate in % after 2d” value ([1]; 0.8 g/ha) did it give?
A: 0%

Q: What about the “Kill level in % after 6d” value [3] of the same molecule?
A: 33%

Q: And the “Kill level in % after 6d” value [4]?
A: 50%

Q: With Cc1nn(C)c(/C(OC(=O)C(C)(C)C)=C(\C#N)c2ccc(C(C)(C)C)cc2)c1C [Cyenopyrafen, (1E)-2-cyano-2-[4-(1,1-dimethylethyl)phenyl]-1-(1,3,4-trimethyl-1H-pyrazol-5-yl)ethenyl 2,2-dimethylpropanoate] as the molecule, how does the “Kill rate in % after 2d” value ([1]; 0.8 g/ha) read?
A: 80%

Q: And the “Kill level in % after 6d” value [3]?
A: 50%

Q: And the “Kill level in % after 6d” value [2]?
A: 0%
